Legend:
Assay type in all cases: biochemical
JAK2 = target: T1, JAK2 (Homo sapiens, UniProt O60674); test: JAK2 inhibition (Table 4); conditions: read-out: JAK2 Ki
T1 construct: made in house; host or cells: SF9 insect cells (baculovirus)

TYK2 = target: T2, TYK2 (Homo sapiens, UniProt P29597); test: TYK2 inhibition (Table 4)
T2 construct: made in house; host or cells: SF9 insect cells (baculovirus)
T2 sequence (P29597 873-1187): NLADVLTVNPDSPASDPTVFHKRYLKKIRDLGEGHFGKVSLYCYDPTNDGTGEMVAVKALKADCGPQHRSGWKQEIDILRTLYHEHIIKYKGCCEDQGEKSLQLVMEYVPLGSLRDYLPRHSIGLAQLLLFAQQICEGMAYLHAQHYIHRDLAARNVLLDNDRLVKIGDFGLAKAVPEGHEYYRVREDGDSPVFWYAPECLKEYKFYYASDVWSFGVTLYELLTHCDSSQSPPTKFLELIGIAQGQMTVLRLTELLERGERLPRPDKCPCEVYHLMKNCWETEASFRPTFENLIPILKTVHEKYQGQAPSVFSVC

JAK3 = target: T3, JAK3 (Homo sapiens, UniProt P52333); test: JAK3 inhibition (Table 4); conditions: read-out: JAK3 Ki
T3 construct: made in house; host or cells: SF9 insect cells (baculovirus)

JAK1 = target: T4, JAK1 (Homo sapiens, UniProt P23458); test: JAK1 inhibition (Table 4); conditions: read-out: JAK1 Ki
T4 construct: made in house; host or cells: SF9 insect cells (baculovirus)
T4 sequence (P23458 852-1154): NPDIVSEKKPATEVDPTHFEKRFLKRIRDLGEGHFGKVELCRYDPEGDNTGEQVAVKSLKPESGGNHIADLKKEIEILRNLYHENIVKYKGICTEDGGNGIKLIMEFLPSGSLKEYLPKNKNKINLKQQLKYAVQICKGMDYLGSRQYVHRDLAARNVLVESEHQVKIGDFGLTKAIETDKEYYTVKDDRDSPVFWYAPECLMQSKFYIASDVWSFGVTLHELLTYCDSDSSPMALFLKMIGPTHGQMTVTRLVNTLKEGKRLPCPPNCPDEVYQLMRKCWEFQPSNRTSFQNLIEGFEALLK

T3 sequence (P52333 783-1124): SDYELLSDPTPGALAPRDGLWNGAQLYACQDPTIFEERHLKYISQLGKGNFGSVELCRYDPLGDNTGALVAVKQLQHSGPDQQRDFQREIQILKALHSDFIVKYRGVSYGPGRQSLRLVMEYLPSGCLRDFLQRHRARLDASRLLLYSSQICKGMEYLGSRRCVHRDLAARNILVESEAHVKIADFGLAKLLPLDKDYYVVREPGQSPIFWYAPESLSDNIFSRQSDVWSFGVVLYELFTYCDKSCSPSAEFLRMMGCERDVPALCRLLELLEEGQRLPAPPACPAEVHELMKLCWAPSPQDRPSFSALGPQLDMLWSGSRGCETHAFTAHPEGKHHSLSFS
T1 sequence (O60674 812-1132): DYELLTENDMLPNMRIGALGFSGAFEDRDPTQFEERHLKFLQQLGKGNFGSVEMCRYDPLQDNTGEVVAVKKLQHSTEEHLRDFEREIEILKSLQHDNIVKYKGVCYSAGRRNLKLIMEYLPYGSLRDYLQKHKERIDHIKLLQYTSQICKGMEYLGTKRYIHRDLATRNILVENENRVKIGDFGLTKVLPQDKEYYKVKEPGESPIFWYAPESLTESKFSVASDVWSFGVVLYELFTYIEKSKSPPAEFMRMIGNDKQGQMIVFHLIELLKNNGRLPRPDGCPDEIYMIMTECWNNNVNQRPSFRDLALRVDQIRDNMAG

SMILES | Ki (JAK2) | Ki (TYK2) | Ki (JAK3) | Ki (JAK1)
N#CCCN1[C@@H]2CC[C@H]1C[C@H](n1cnc3cnc4[nH]ccc4c31)C2 [Example 98, 3-[(1S,3S,5R)-3-(6H-1,3,5,6-Tetraaza-as-indacen-1-yl)-8-aza-bicyclo[3.2.1]oct-8-yl]propionitrile] | 1.63 nM | 8.64 nM | 11.8 nM | 2.04 nM
NC(=O)Cc1nc2cnc3[nH]ccc3c2n1C1CCN(Cc2ccccc2)CC1 [Example 245, 2-[1-(1-Benzyl-piperidin-4-yl)-1,6-dihydro-1,3,5,6-tetraaza-as-indacen-2-yl]-acetamide] | 43.1 nM | 468 nM | 19.4 nM | 9.84 nM
C[C@@H](O)c1nc2cnc3[nH]ccc3c2n1C1CCN(Cc2ncco2)CC1 [Example 923, (R)-1-[1-(1-Oxazol-2-ylmethyl-piperidin-4-yl)-1,6-dihydro-1,3,5,6-tetraaza-as-indacen-2-yl]-ethanol] | 150 nM | 363 nM | 37.4 nM | 17.1 nM
C[C@@H](O)c1nc2cnc3[nH]ccc3c2n1C1CCN(Cc2ccn(C)n2)CC1 [Example 825, (R)-1-{1-[1-(1-Methyl-1H-pyrazol-3-ylmethyl)-piperidin-4-yl]-1,6-dihydro-1,3,5,6-tetraaza-as-indacen-2-yl}-ethanol] | 350 nM | 1960 nM | 143 nM | 26 nM
O=C(N[C@H]1CC[C@H](n2cnc3cnc4[nH]ccc4c32)CC1)OCC1CC1 [Example 140, Trans[4-(6H-1,2,3,5,6-Tetraaza-as-indacen-1-yl)-cyclohexyl]-carbamic acid cyclopropylmethyl ester] | 17.4 nM | 78.8 nM | 88.1 nM | 5.16 nM
CS(=O)(=O)CCN1CCC(n2cnc3cnc4[nH]ccc4c32)CC1 [Example 59, 1-[1-(2-Methanesulfonyl-ethyl)-piperidin-4-yl]-1,6-dihydro-1,3,5,6-tetraaza-as-indacene] | 6.01 nM | 30.5 nM | 27.7 nM | 1.96 nM
CCOC(=O)N1CCC[C@@H](n2c([C@@H](C)O)nc3cnc4[nH]ccc4c32)C1 [Example 800, (R)-3-[2-((R)-1-Hydroxy-ethyl)-6H-1,3,5,6-tetraaza-as-indacen-1-yl]-piperidine-1-carboxylic acid ethyl ester] | 1460 nM | 1090 nM | 1420 nM | 163 nM
CCC(COC)n1c(C)nc2cnc3[nH]ccc3c21 (racemic) [Example 415, 1-(1-Methoxymethyl-propyl)-2-methyl-1,6-dihydro-1,3,5,6-tetraaza-as-indacene] | 233 nM | 919 nM | 109 nM | 115 nM
CC1(n2cnc3cnc4[nH]ccc4c32)CCN(Cc2cccc(C#N)c2)CC1 [Example 754, 3-[4-Methyl-4-(6H-1,3,5,6-tetraaza-as-indacen-1-yl)-piperidin-1-ylmethyl]-benzonitrile] | 286 nM | 2370 nM | 961 nM | 40.4 nM
Cc1cnn(CCc2nc3cnc4[nH]ccc4c3n2C2CCN(CCC#N)CC2)c1 [Example 413, 3-(4-{2-[2-(4-Methyl-pyrazol-1-yl)-ethyl]-6H-1,3,5,6-tetraaza-as-indacen-1-yl}-piperidin-1-yl)-propionitrile] | 59.8 nM | 181 nM | 224 nM | 21.1 nM
Cc1nc2cnc3[nH]ccc3c2n1[C@@H]1CC[C@@H](NC(=O)OC(C)(C)C)C1 [Example 623, [(1R,3R)-3-(2-Methyl-6H-1,2,3,5,6-tetraaza-as-indacen-1-yl)-cyclopentyl]-carbamic acid tert-butyl ester] | 8.69 nM | 118 nM | 42.7 nM | 0.98 nM
CC1CN(Cc2cncnc2)CCC1n1cnc2cnc3[nH]ccc3c21 (racemic) [Example 343, 1-(3-Methyl-1-pyrimidin-5-ylmethyl-piperidin-4-yl)-1,6-dihydro-1,3,5,6-tetraaza-as-indacene] | 14 nM | 346 nM | 3.2 nM | 5.71 nM
N#CCCN1CCC(n2c(CNC(=O)C3CC3)nc3cnc4[nH]ccc4c32)CC1 [Example 500, Cyclopropanecarboxylic acid {1-[1-(2-cyano-ethyl)-piperidin-4-yl]-1,6-dihydro-1,3,5,6-tetraaza-as-indacen-2-ylmethyl}-amide] | 58.7 nM | 394 nM | 41 nM | 28.7 nM
CC1(n2cnc3cnc4[nH]ccc4c32)CCN(Cc2ccnc(C#N)c2)CC1 [Example 756, 4-[4-Methyl-4-(6H-1,3,5,6-tetraaza-as-indacen-1-yl)-piperidin-1-ylmethyl]-pyridine-2-carbonitrile] | 259 nM | 1120 nM | 617 nM | 36.1 nM

Further lines, results first:

Ki (JAK2) | Ki (TYK2) | Ki (JAK3) | Ki (JAK1) | SMILES
32.7 nM | 207 nM | 42.7 nM | 8.8 nM | COCCNc1nc2cnc3[nH]ccc3c2n1C1CCN(CCC#N)CC1 [Example 770, 3-{4-[2-(2-Methoxy-ethylamino)-6H-1,3,5,6-tetraaza-as-indacen-1-yl]-piperidin-1-yl}-propionitrile]
26.7 nM | 63.4 nM | 14.1 nM | 5.32 nM | N#CCCN1CCC(n2c(CC(N)=O)nc3cnc4[nH]ccc4c32)CC1 [Example 264, 2-{1-[1-(2-Cyano-ethy)-piperidin-4-yl]-1,6-dihydro-1,3,5,6-tetraaza-as-indacen-2-yl}-acetamide]
13.2 nM | 6.89 nM | 42.4 nM | 0.65 nM | C[C@@H](O)c1nc2cnc3[nH]ccc3c2n1C1CCC(CCS(C)(=O)=O)CC1 (stereo partly drawn) [Example 778, (R)-1-{1-[4-(2-methanesulfonyl-ethyl)-cyclohexyl]-1,6-dihydro-1,3,5,6-tetraaza-as-indacen-2-yl}-ethanol]
142 nM | 76.9 nM | 195 nM | 24 nM | CC(O)c1nc2cnc3[nH]ccc3c2n1C1CC2CCC1O2 (single isomer, unassigned) [Example 907, (o)-1-[1-(7-Oxa-bicyclo[2.2.1]hept-2-yl)-1,6-dihydro-1,3,5,6-tetraaza-as-indacen-2-yl]-ethanol]
115 nM | 713 nM | 844 nM | 43.2 nM | O=C(CN1CCCC1=O)N1CCC(n2cnc3cnc4[nH]ccc4c32)CC1 [Example 440, 1-{2-Oxo-2-[4-(6H-1,3,5,6-tetraaza-as-indacen-1-yl)-piperidin-1-yl]-ethyl}-pyrrolidin-2-one]
31.8 nM | 386 nM | 20.5 nM | 11.6 nM | CC(C)(C)OC(=O)N1CC(c2nc3cnc4[nH]ccc4c3n2C2CCN(Cc3ccccc3)CC2)C1 [Example 161, 3-[1-(1-Benzyl-piperidin-4-yl)-1,6-dihydro-1,2,3,5,6-tetraaza-as-indacen-2-yl]azetidine-1-carboxylic acid tert-butyl ester]
179 nM | 1100 nM | 563 nM | 264 nM | COCC(=O)NC1CCCC(n2cnc3cnc4[nH]ccc4c32)C1 (single isomer, unassigned) [Example 480, 2-Methoxy-N-[3-(6H-1,3,5,6-tetraaza-as-indacen-1-yl)-cyclohexyl]-acetamide]
24.4 nM | 150 nM | 88.9 nM | 9.86 nM | COC1CN(C)CCC1n1c(C)nc2cnc3[nH]ccc3c21 (racemic) [Example 534, 1-(3-Methoxy-1-methyl-piperidin-4-yl)-2-methyl-1,6-dihydro-1,3,5,6-tetraaza-as-indacene]
8.22 nM | 2.92 nM | 18.7 nM | 0.57 nM | C[C@@H](O)c1nc2cnc3[nH]ccc3c2n1C1CC2CCC1C2 (stereo partly drawn) [Example 943, (R)-1-(1-Bicyclo[2.2.1]hept-2-yl-1,6-dihydro-1,3,5,6-tetraaza-as-indacen-2-yl)-ethanol]
35.6 nM | 217 nM | 21.4 nM | 9.88 nM | N#CCCN1CCC(n2c(CC3CC3)nc3cnc4[nH]ccc4c32)CC1 [Example 383, 3-[4-(2-Cyclopropylmethyl-6H-1,3,5,6-tetraaza-as-indacen-1-yl)-piperidin-1-yl]-propionitrile]
11.2 nM | 55.6 nM | 153 nM | 3.87 nM | O=C(CO)N1CCC(n2cnc3cnc4[nH]ccc4c32)CC1 [Example 437, 2-Hydroxy-1-[4-(6H-1,3,5,6-tetraaza-as-indacen-1-yl)-piperidin-1-yl]-ethanone]
467 nM | 519 nM | 895 nM | 114 nM | c1cc2c(ncc3nc([C@H]4CCCN4)n([C@H]4CCCOC4)c32)[nH]1 [Example 667, 2-(R)-Pyrrolidin-2-yl-1-(S)-tetrahydro-pyran-3-yl-1,6-dihydro-1,2,3,5,6-tetraaza-as-indacene]
10.6 nM | 65.9 nM | 407 nM | 8.98 nM | O=S(=O)(c1cccnc1)N1CCC(n2cnc3cnc4[nH]ccc4c32)CC1 [Example 88, 1-[1-(Pyridine-3-sulfonyl)-piperidin-4-yl]-1,6-dihydro-1,3,5,6-tetraaza-as-indacene]
888 nM | 3180 nM | 351 nM | 291 nM | CCC(COC)n1c(C(C)O)nc2cnc3[nH]ccc3c21 (single isomer, unassigned) [Example 182a, 1-[1-(1-Methoxymethyl-propyl)-1,6-dihydro-1,2,3,5,6-tetraaza-as-indacen-2-yl]-ethanol]
